Assay results from publication PMC9404985, “Development of Dicationic Bisguanidine-Arylfuran Derivatives as Potent Agents against Gram-Negative Bacteria” (Antibiotics, 2022).

How the values were obtained:
[1] = Cytotoxicity assay (PrestoBlue) MCF-7; assay type: cell-based; conditions: human, MCF-7 cells (breast cancer cell line), 24 h incubation
Procedure: The cytotoxicity levels of all compounds were evaluated against human Michigan Cancer Foundation-7 (MCF-7) and Hepatoma G2 cell line (HepG2) cell lines. MCF-7 is an extensively characterized breast cancer cell line isolated in 1970 [41], while HepG2 cells were derived from a hepatoma in 1975 [42]. Both cell lines grow robustly during in vitro culture and have been widely used for cytotoxicity testing. Cells of hepatic origin, such as HepG2, are of particular relevance for toxicity studies as many drugs accumulate in the liver during metabolic conversion. Cells were grown in Dulbecco’s Modified Eagle Medium supplemented with 10% fetal calf serum and kept in exponential growth, as previously reported. Before the assay, cells were reseeded into 96-well microtiter plates at a density allowing continued exponential growth and let to settle for 24 h. The compounds were added from a stock solution in DMSO, for a final concentration of 0.3% v/v of the solvent in the culture medium. After 24 h of incubation in presence of the compound, cell viability was assayed using PrestoBlue Cell Viability Reagent (resazurin-based solution, ThermoFisher, Waltham, MA, USA) according to the manufacturer’s instructions. […] Each assay contained a DMSO control at the equivalent starting concentration, positive control (uninhibited cell growth) and negative control (cell medium only). Survival was expressed as percentage of the solvent-only control. […] The Selectivity Index (SI) for each compound and bacterial strain was calculated as the ratio between the mean of the EC50 values for the two human cell lines and the EC50 for the bacterial strain in question ((EC50 MCF-7 + EC50 HepG2)/2)/EC50 bacterial strain).

[2] = system: P. aeruginosa (CCUG #17619); assay: Antibacterial activity against isolates (Omnilog, Biolog redox dye); assay type: cell-based, Pseudomonas aeruginosa; conditions: for EC50 / EC90: Pseudomonas aeruginosa, CCUG17619, ca-MH broth, 24 h, 37 °C; for Selectivity index P. aeruginosa (CCUG #17619): SI = ((EC50 MCF-7 + EC50 HepG2)/2)/EC50 bacterial strain
Procedure: (§1) The antibacterial activities of eight compounds (1, 3, 4, 6, 8, 10, 16, and 17) were tested against 10 different isolates of Gram-negative bacteria from human and other sources, two E. coli (CCUG #67180 and CCUG #17620/ATCC #25922, control strain), two K. pneumoniae (CCUG #58547 and CCUG #225T), two P. aeruginosa (CCUG #17619 and CCUG #59347), two A. baumannii (CCUG #57035 and CCUG #57250), E. cloacae (CCUG #6323T), and E. hormaechei (CCUG #58962) in a 96-well plate format. The compounds to test were 3-fold diluted in six steps in cation-adjusted Mueller-Hinton (ca-MH) broth to final concentrations spanning from 30 to 0.12 µM, i.e., a 1667–416,667 times dilution from the 50 mM stocks. Bacterial mass from the ten isolates grown overnight on horse blood or Mueller–Hinton agar plates was suspended in ca-MH and adjusted to a final inoculum cell density of ~5 × 10^5 CFU/mL. For all assays, Biolog redox dye A diluted 100× from the stock solution was used for measurements of all ten isolates (up to a total volume of 120 µL per well). All plates included one well per isolate with only inoculum and dye but no test compound (i.e., positive control) and one well per isolate with inoculum, dye and DMSO diluted 1667×, corresponding to the DMSO concentration in the wells with the highest concentration of test compound. All measurements were performed using the Omnilog microplate reader (Biolog, Hayward, CA, USA) where the 96-well plates were read at 15 min intervals for a total of 24 h at 37 °C.

[3] = system: P. aeruginosa (CCUG #59347); assay: as above; assay type: cell-based, Pseudomonas aeruginosa; conditions: for EC50 / EC90: Pseudomonas aeruginosa, CCUG59347, ca-MH broth, 24 h, 37 °C; for Selectivity index P. aeruginosa (CCUG #59347): SI = ((EC50 MCF-7 + EC50 HepG2)/2)/EC50 bacterial strain
Procedure: as §1, with “The compounds to test were 3-fold diluted in six steps in cation-adjusted Mueller-Hinton (ca-MH) broth to final concentrations spanning from 30 to 0.12 µM, i.e., a 1667–416,667 times dilution from the 50 mM stocks.” left out

[4] = system: A. baumannii (CCUG #57035); assay: as above; assay type: cell-based, Acinetobacter baumannii; conditions: for EC50 / EC90: Acinetobacter baumannii, CCUG57035, ca-MH broth, 24 h, 37 °C; for Selectivity index A. baumannii (CCUG #57035): SI = ((EC50 MCF-7 + EC50 HepG2)/2)/EC50 bacterial strain
Procedure: as §1, with “The compounds to test were 3-fold diluted in six steps in cation-adjusted Mueller-Hinton (ca-MH) broth to final concentrations spanning from 30 to 0.12 µM, i.e., a 1667–416,667 times dilution from the 50 mM stocks.” left out

E. cloacae (CCUG #6323T) = assay: as above; assay type: cell-based, Enterobacter cloacae; conditions: for EC50 / EC90: Enterobacter cloacae, ca-MH broth, 24 h, 37 °C; for Selectivity index E. cloacae (CCUG #6323T): SI = ((EC50 MCF-7 + EC50 HepG2)/2)/EC50 bacterial strain
Procedure: as §1

[5] = system: E. coli (CCUG #17620/ ATCC #25922); assay: as above; assay type: cell-based, Escherichia coli; conditions: for EC50 / EC90: Escherichia coli, ca-MH broth, 24 h, 37 °C; for Selectivity index E. coli (CCUG #17620/ ATCC #25922): SI = ((EC50 MCF-7 + EC50 HepG2)/2)/EC50 bacterial strain
Procedure: as §1

E. coli (CCUG #67180) = assay: as above; assay type: cell-based, Escherichia coli; conditions: for EC90 / EC50: Escherichia coli, ca-MH broth, 24 h, 37 °C; for EC90: CCUG67180, 24 h; for EC50: CCUG67180; for Selectivity index E. coli (CCUG #67180): SI = ((EC50 MCF-7 + EC50 HepG2)/2)/EC50 bacterial strain
Procedure: as §1

[6] = system: B. subtilis (NBRC/ATCC #111470); assay: Antibacterial resazurin assay, laboratory strain; conditions: for EC50 / EC90: Bacillus subtilis, ATCC111470, 18 h; for EC50: read-out: Bsu EC50; for EC90: read-out: Bsu EC90
[7] = system: P. carotovorum (NBRC/ATCC #3380); assay: Antibacterial resazurin assay, laboratory strain; conditions: for EC50 / EC90: Pectobacterium carotovorum, ATCC3380, 18 h; for EC50: read-out: Pcar EC50, laboratory strain, 18 h, 37 °C, AlamarBlue; for EC90: read-out: Pcar EC90; for Selectivity index P. carotovorum: mean of MCF-7 and HepG2 EC50 over bacterial EC50, laboratory strain

| Compound | EC50 at 24 h [1] | EC50 [2] | EC90 [2] | EC50 [3] | EC90 [3] | EC50 [4] | EC90 [4] | EC50 (E. cloacae (CCUG #6323T)) | EC90 (E. cloacae (CCUG #6323T)) | Selectivity index E. cloacae (CCUG #6323T) (E. cloacae (CCUG #6323T)) | EC50 [5] | EC90 [5] | Selectivity index E. coli (CCUG #17620/ ATCC #25922) [5] | EC90 (E. coli (CCUG #67180)) | EC50 (E. coli (CCUG #67180)) | Selectivity index E. coli (CCUG #67180) (E. coli (CCUG #67180)) | EC50 [6] | EC90 [6] | EC50 [7] | EC90 [7] | other results |
| --- | --- | --- | --- | --- | --- | --- | --- | --- | --- | --- | --- | --- | --- | --- | --- | --- | --- | --- | --- | --- | --- |
| COC(=O)c1cc(NC(=N)N)ccc1-c1ccc(-c2ccc(NC(=N)N)cc2C(=O)OC)o1 [Compound 8, 2,5-Bis(4-guanidino-2-(methylcarboxy)phenyl)furan] | 81.6 µM | > 200 µM | > 200 µM | > 200 µM | > 200 µM | 5.2 µM | 7 µM | 4.8 µM | 7.1 µM | 50.8 | 6 µM | 8.2 µM | 40.5 | 67.5 µM | 53.4 µM | 4.6 | 22.5 µM | 43.6 µM | 140 µM | 158 µM | Selectivity index A. baumannii (CCUG #57035) [4]: 47.2; Selectivity index B. subtilis ([6]; mean of MCF-7 and HepG2 EC50 over bacterial EC50, laboratory strain): 10.8; Selectivity index P. carotovorum [7]: 1.7 |
| N=C(N)NCc1ccc(-c2ccc(-c3ccc(CNC(=N)N)cc3)o2)cc1 [Compound 10, 2,5-Bis(4-guanidinomethylphenyl)furan] | 48.6 µM | > 200 µM | > 200 µM | > 200 µM | > 200 µM | > 200 µM | > 200 µM | 12.4 µM | 24.7 µM | 7.5 | 151 µM | 179 µM | 0.6 | > 200 µM | 188 µM | 0.5 | > 300 µM | > 300 µM | 43.6 µM | 61.2 µM | Selectivity index P. carotovorum [7]: 2.1 |
| N=C(N)Nc1ccc(-c2ccc(C(=O)N3CCc4cc(NC(=N)N)ccc43)o2)c(Cl)c1 [Compound 16, (5-(2-chloro-4-guanidinophenyl)furan-2-yl)(5-guanidinoindolin-1-yl)methanone] | 177 µM | 17.1 µM | 22.9 µM | 18.1 µM | 24 µM | 16.5 µM | 24.4 µM | 3.5 µM | 7.9 µM | 60.1 | 13.6 µM | 19.7 µM | 15.4 | 27.1 µM | 23 µM | 9.1 | > 300 µM | > 300 µM | 70.9 µM | 80.7 µM | Selectivity index P. aeruginosa (CCUG #17619) [2]: 12.2; Selectivity index P. aeruginosa (CCUG #59347) [3]: 11.5; Selectivity index A. baumannii (CCUG #57035) [4]: 12.7; Selectivity index P. carotovorum [7]: 2.9 |
| N=C(N)Nc1ccc(-c2ccc(C(=O)N3CCc4cc(NC(=N)N)ccc43)o2)cc1 [Compound 17, (5-(4-guanidinophenyl)furan-2-yl)(5-guanidinoindolin-1-yl)methanone] | 149 µM | 22.9 µM | 27 µM | 17 µM | 23.9 µM | 148 µM | > 200 µM | 5.6 µM | 8.6 µM | 34.8 | 16.4 µM | 24 µM | 11.8 | 19.9 µM | 14.2 µM | 13.7 | > 300 µM | > 300 µM | 130 µM | 142 µM | Selectivity index P. aeruginosa (CCUG #17619) [2]: 8.5; Selectivity index P. aeruginosa (CCUG #59347) [3]: 11.4; Selectivity index A. baumannii (CCUG #57035) [4]: 1.3; Selectivity index P. carotovorum [7]: 1.5 |
